From article PMC2987774, “Creation of a novel peptide with enhanced nuclear localization in prostate and pancreatic cancer cell lines” (BMC Biotechnology, 2010)
“And” between values parts separate entries of the source, which are not always exact repeats. Identical values can stand only once. Like-named read-outs stand apart in the source and are kept apart here. Marks after values point to notes of the source that are not given here.

Key:
DU-145 and LNCaP cells [1] = assay: Nuclear colocalization by imaging flow cytometry (DRAQ5), statement pooled over two lines; format: cell-based; details: 250 nM, 4 hours; fixed cells, IDEAS software
Protocol: Figure 4 Imaging studies. Figure 4A: DU-145 and LNCaP cells were incubated with 250 nM Glu-Ala-FITC or Glu-Oct6-FITC for 4 hours, counterstained with […] DRAQ 5, then fixed in paraformaldehyde and analyzed by imaging flow cytometry on an Amnis Imaging Cytometer. IDEAS software (Amnis) was used to generate and colorize the images. Across each row of images, one is viewing the same cell under different fluorescence excitations. […] Figure 4B: Live cell imaging of Glu-Oct6-FITC by DU-145 cells. 500 nM Glu-Oct6-FITC was incubated with DU-145 cells overnight (necessary for imaging purposes). Cells were washed with phenol red-free buffer, counter-stained with DRAQ5 at […], and then examined under a Zeiss Axiovert 200 inverted phase contrast microscope with epifluorescence. The merged image confirms the presence of Glu-Oct6-FITC in nuclei. Merged images with and without Nomarski interference are shown. Figure 4C and D: DU-145 cells incubated with Glu-FITC and Oct6-FITC, as described for Figure 3B. Note the absence of FITC fluorescence in nuclei.
(§1) Concentrations ranging from 0 to 1000 nM were assayed. Fluorescence was normalized using calibration beads (Becton-Dickinson; BD). […] Four to five thousand events were collected for analysis.

DU-145 and LNCaP cells [2] = assay: Live cell imaging, inverted epifluorescence microscopy with DRAQ5; format: cell-based; details: 500 nM, 24 hrs incubation
Protocol: A Zeiss Axiovert 200 inverted phase-contrast microscope outfitted with epifluorescence was used for live imaging studies. Subconfluent cultures of cells in 12-well plates were incubated with 500 nM peptides as indicated. DRAQ5 (Axxora; […] final concentration) was added for the last hour of incubation, then the cells were washed twice with warm phenol red-free buffer. Cells were examined in phenol red-free buffer plus 10% serum. Images were acquired and analyzed using Zeiss Axiovision software.

DU-145 cells [3] = details: for % Inhibition of uptake: 300 nM, 4 hr; for uptake of Glu-Oct6-FITC on coincubation with carboxydansyl peptide: 300 nM dansyl peptide + 300 nM Glu-Oct6-FITC, 1 hr, BD LSR II (Figure 2D)
Protocol: Peptides were added to subconfluent cultures of cells at times, temperatures, and concentrations indicated in experiments. Concentrations ranging from 0 to 1000 nM were assayed. Fluorescence was normalized using calibration beads (Becton-Dickinson; BD). Cells were analyzed in the presence of 5 mM 7-AAD (eBioscience, San Digeo CA) to gate on live events. Fluorescence was quantified, after cells were harvested, using a BD FACScan flow cytometer. At least 10,000 events were acquired using CellQuest Pro software and an Apple Macintosh G4 dual coprocessor computer running OS X 10.3.9. Fluorescence detectors on the instrument were standardized prior to each acquisition run, so that fluorescence intensities from different days could be compared. Because the FACScan employs logarithmic amplifiers on the fluorescence detectors, the more accurate parameter with which to compare fluorescence intensities for different samples is the geometric mean fluorescence intensity (geometric MFI). For the studies examining uptake of carboxyfluorescein peptides plus carboxydansyl peptides, fluorescence was quantified on a BD LSR II flow cytometer.

DU-145 cells [4] = assay: Nuclear colocalization by imaging flow cytometry (DRAQ5, Amnis ImageStream); format: cell-based; details: 1000 nM, 18 hr; 4 to 5 thousand events
Protocol: as §1

PANC-1 cells [5] = assay: as above; format: cell-based; details: 1000 nM, 18 hr; 4 to 5 thousand events
Protocol: as §1

DU-145 cells [6] = assay: Apoptosis, FITC-annexin V plus PI flow cytometry; format: cell-based; details: 48 hr, mean of 3 experiments
Protocol: (§2) DU-145 and PANC-1 cells were incubated with PNAs Glu-Oct6-13410a or 13410a (no CPP attached) at 0, 300, 600, or 1000 nM for 48 hr. Cells were harvested, then stained with FITC-annexin V (Abcam; Cambridge, MA) and counterstained with propidium iodide (Sigma, St.Louis, MO). Cells were analyzed on a BD FACScan for fluorescence in the FL1 and FL3 channels; CellQuest Pro software was used to quantify fluorescence and determine the extent of apoptosis.

PANC-1 cells [7] = assay: Apoptosis, FITC-annexin V plus PI flow cytometry; format: cell-based; details: 48 hr, mean of 3 experiments
Protocol: as §2

EEEAA-FITC [Glu-Ala-FITC]
nuclei positive for DRAQ5 and FITC colocalization (DU-145 and LNCaP cells [1]): ~ 10%
accumulation in the nuclei (DU-145 and LNCaP cells [2]): not
% Inhibition of uptake (DU-145 cells [3]; 0% NaN3 (reference)): 0%
% Inhibition of uptake (DU-145 cells [3]; 0.1% NaN3): 0%

NNNAAGRKRKKRT-dansyl [Asn-Oct6-Dansyl]
uptake of Glu-Oct6-FITC on coincubation with carboxydansyl peptide (DU-145 cells [3]): nearly unaltered uptake

EEEAAGRKRKKRT-FITC [Glu-Oct6-FITC]
distribution in the cytoplasm (DU-145 and LNCaP cells [1]): approximately 50%
distribution in the nucleus (DU-145 and LNCaP cells [1]): approximately 50%
accumulation in the nuclei (DU-145 and LNCaP cells [2]): accumulated in the nuclei
% Inhibition of uptake (DU-145 cells [3]; 0% NaN3 (reference)): 0%
% Inhibition of uptake (DU-145 cells [3]; 0.1% NaN3): 0%
% Inhibition of uptake (DU-145 cells [3]; 1.0% NaN3): 24.8%

FFFAAGRKRKKRT-dansyl [Phe-Oct6-Dansyl]
uptake of Glu-Oct6-FITC on coincubation with carboxydansyl peptide (DU-145 cells [3]): nearly unaltered uptake

EEEAAKKK-FITC [Glu-Lys-FITC]
% Inhibition of uptake (DU-145 cells [3]; 0% NaN3 (reference)): 0%
% Inhibition of uptake (DU-145 cells [3]; 0.1% NaN3): 0%

EEEAAGRKRKKRT-TATGATCTCCTCCGT-K-FITC [Glu-Oct6-PNA-FITC, Glu-Oct6 at the N terminus, inert PNA …-lysyl-FITC at the C terminus]
mean % cyto. FITC (DU-145 cells [4]): 22.48%
mean % nuclear FITC (DU-145 cells [4]): 68.04%
mean cyto. FITC intensity (DU-145 cells [4]): 76,943
mean nuclear FITC intensity (DU-145 cells [4]): 274,597
mean % cyto. FITC (PANC-1 cells [5]): 21.8%
mean cyto. FITC intensity (PANC-1 cells [5]): 68,465
mean nuclear FITC intensity (PANC-1 cells [5]): 322,794

GRKRKKRT-FITC [Oct6-FITC, reference compound]
accumulation in the nuclei (DU-145 and LNCaP cells [2]): not
% Inhibition of uptake (DU-145 cells [3]; 0% NaN3 (reference)): 0%
% Inhibition of uptake (DU-145 cells [3]; 0.1% NaN3): 29.8%
% Inhibition of uptake (DU-145 cells [3]; 1.0% NaN3): 56.7%

EEEAAGRKRKKRT-TCCCGTAAATCCCTA [Glu-Oct6-13410a]
% apop. (DU-145 cells [6]; 300 nM PNA): 8.7%
% apop. (DU-145 cells [6]; 600 nM PNA): 48% and 48.7* %
% apop. (DU-145 cells [6]; 1000 nM PNA): 82.5* %
% apop. (PANC-1 cells [7]; 300 nM PNA): 17.4%
% apop. (PANC-1 cells [7]; 600 nM PNA): 69% and 69.6* %
% apop. (PANC-1 cells [7]; 1000 nM PNA): 84.6* %
